Test results taken from PubChem BioAssay AID2060886 (Molecular Pharmacology Branch, DTP, NCI, 2025).
Blank lines part the entries; values can stand above or below the compound they belong to.

Tested on: 653999-131-R-J2-PDC complex spheroids, growth inhibition
Assay: Anticancer human tumor 653999-131-R-J2-PDC patient-derived lung adenocarcinoma cell line growth inhibition [RAS]
Conditions: for viability, T/C: stronger effect = lower value
Outline: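 Tumour cells grown as complex spheroids with HUVEC endothelial cells and mesenchymal stem cells, treated with RAS pathway inhibitor combinations. Each agent spans half-log steps from near clinical Cmax, or 10 microM where Cmax is unknown.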

[1] = curve of first compound, second compound 0.000949 µM
[2] = curve of first compound, second compound 0.003 µM
[3] = curve of first compound, second compound 0.00949 µM
[4] = curve of first compound, second compound 0.03 µM
[5] = curve of first compound, second compound 0.0949 µM
[6] = curve of first compound, second compound 0.3 µM
[7] = second compound 0.000949 µM, first compound 0.00316 µM
[8] = second compound 0.000949 µM, first compound 0.01 µM
[9] = second compound 0.000949 µM, first compound 0.0316 µM
[10] = second compound 0.000949 µM, first compound 0.1 µM
[11] = second compound 0.003 µM, first compound 0.00316 µM
[12] = second compound 0.003 µM, first compound 0.01 µM
[13] = second compound 0.003 µM, first compound 0.0316 µM
[14] = second compound 0.003 µM, first compound 0.1 µM
[15] = second compound 0.00949 µM, first compound 0.00316 µM
[16] = second compound 0.00949 µM, first compound 0.01 µM
[17] = second compound 0.00949 µM, first compound 0.0316 µM
[18] = second compound 0.00949 µM, first compound 0.1 µM
[19] = second compound 0.03 µM, first compound 0.00316 µM
[20] = second compound 0.03 µM, first compound 0.01 µM
[21] = second compound 0.03 µM, first compound 0.0316 µM
[22] = second compound 0.03 µM, first compound 0.1 µM
[23] = second compound 0.0949 µM, first compound 0.00316 µM
[24] = second compound 0.0949 µM, first compound 0.01 µM
[25] = second compound 0.0949 µM, first compound 0.0316 µM
[26] = second compound 0.0949 µM, first compound 0.1 µM
[27] = second compound 0.3 µM, first compound 0.00316 µM
[28] = second compound 0.3 µM, first compound 0.01 µM
[29] = second compound 0.3 µM, first compound 0.0316 µM
[30] = second compound 0.3 µM, first compound 0.1 µM
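Further: spheroids exposed to the agents for seven days before the readout.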

- IC50 [1]: 70.6 nM
- IC50 [2]: 66.1 nM
- IC50 [3]: 61.9 nM
- IC50 [4]: 64.4 nM
- IC50 [5]: 42.5 nM
- IC50 [6]: 59.3 nM
Structure (SMILES): Nc1ccn(C2OC(CO)C(O)C2(F)F)c(=O)n1 (stereo unspecified) + CCn1c(-c2cccnc2C(C)OC)c2c3cc(ccc31)N1CCOC(CC(NC(=O)C(C(C)C)N(C)C(=O)C3(F)CCN(C(=O)C#CC(C)(C)N(C)C)CC3)C(=O)N3CCCC(N3)C(=O)OCC(C)(C)C2)C1
- viability, T/C [7]: 93.8%
- viability, T/C [8]: 74.9%
- viability, T/C [9]: 59.8%
- viability, T/C [10]: 41.4%
- viability, T/C (second compound 0.000949 µM, first compound 0.316 µM): 49.4%
- viability, T/C (second compound 0.000949 µM, first compound 1 µM): 37.4%
- viability, T/C [11]: 110%
- viability, T/C [12]: 74.8%
- viability, T/C [13]: 57.9%
- viability, T/C [14]: 44.7%
- viability, T/C (second compound 0.003 µM, first compound 0.316 µM): 44%
- viability, T/C (second compound 0.003 µM, first compound 1 µM): 36.1%
- viability, T/C [15]: 93.1%
- viability, T/C [16]: 67.1%
- viability, T/C [17]: 59.7%
- viability, T/C [18]: 45.5%
- viability, T/C (second compound 0.00949 µM, first compound 0.316 µM): 36.9%
- viability, T/C (second compound 0.00949 µM, first compound 1 µM): 38.2%
- viability, T/C [19]: 93.8%
- viability, T/C [20]: 66.9%
- viability, T/C [21]: 57.7%
- viability, T/C [22]: 50.3%
- viability, T/C (second compound 0.03 µM, first compound 0.316 µM): 36%
- viability, T/C (second compound 0.03 µM, first compound 1 µM): 31.8%
- viability, T/C [23]: 94.5%
- viability, T/C [24]: 64.9%
- viability, T/C [25]: 53.8%
- viability, T/C [26]: 45.6%
- viability, T/C (second compound 0.0949 µM, first compound 0.316 µM): 37.2%
- viability, T/C (second compound 0.0949 µM, first compound 1 µM): 33.2%
- viability, T/C [27]: 91.5%
- viability, T/C [28]: 78.3%
- viability, T/C [29]: 62.2%
- viability, T/C [30]: 40.1%
- viability, T/C (second compound 0.3 µM, first compound 0.316 µM): 33.3%
- viability, T/C (second compound 0.3 µM, first compound 1 µM): 33.5%

- IC50 (curve of first compound, second compound 0.00316 µM): > 10000 nM
- IC50 (curve of first compound, second compound 0.01 µM): > 10000 nM
- IC50 (curve of first compound, second compound 0.0316 µM): > 10000 nM
- IC50 (curve of first compound, second compound 0.1 µM): > 10000 nM
- IC50 (curve of first compound, second compound 0.316 µM): > 10000 nM
- IC50 (curve of first compound, second compound 1 µM): > 10000 nM
Structure (SMILES): C[C@@H](NC(=O)c1ncnc(N)c1Cl)c1ncc(C(=O)Nc2cc(C(F)(F)F)c(Cl)cn2)s1 + C=CC(=O)N1CCN(c2nc(OCC3CCCN3C)nc3c(F)c(-c4nc(N)cc(C)c4C(F)(F)F)c(Cl)cc23)C(C)C1
- viability, T/C (second compound 0.00316 µM, first compound 0.0316 µM): 120%
- viability, T/C (second compound 0.00316 µM, first compound 0.1 µM): 85%
- viability, T/C (second compound 0.00316 µM, first compound 0.316 µM): 101%
- viability, T/C (second compound 0.00316 µM, first compound 1 µM): 81%
- viability, T/C (second compound 0.00316 µM, first compound 3.16 µM): 88.5%
- viability, T/C (second compound 0.00316 µM, first compound 10 µM): 81%
- viability, T/C (second compound 0.01 µM, first compound 0.0316 µM): 127%
- viability, T/C (second compound 0.01 µM, first compound 0.1 µM): 108%
- viability, T/C (second compound 0.01 µM, first compound 0.316 µM): 89%
- viability, T/C (second compound 0.01 µM, first compound 1 µM): 93.5%
- viability, T/C (second compound 0.01 µM, first compound 3.16 µM): 98%
- viability, T/C (second compound 0.01 µM, first compound 10 µM): 71.3%
- viability, T/C (second compound 0.0316 µM, first compound 0.0316 µM): 116%
- viability, T/C (second compound 0.0316 µM, first compound 0.1 µM): 90.3%
- viability, T/C (second compound 0.0316 µM, first compound 0.316 µM): 93.5%
- viability, T/C (second compound 0.0316 µM, first compound 1 µM): 89.9%
- viability, T/C (second compound 0.0316 µM, first compound 3.16 µM): 84.3%
- viability, T/C (second compound 0.0316 µM, first compound 10 µM): 73.2%
- viability, T/C (second compound 0.1 µM, first compound 0.0316 µM): 105%
- viability, T/C (second compound 0.1 µM, first compound 0.1 µM): 95.2%
- viability, T/C (second compound 0.1 µM, first compound 0.316 µM): 101%
- viability, T/C (second compound 0.1 µM, first compound 1 µM): 94.3%
- viability, T/C (second compound 0.1 µM, first compound 3.16 µM): 89.5%
- viability, T/C (second compound 0.1 µM, first compound 10 µM): 84.2%
- viability, T/C (second compound 0.316 µM, first compound 0.0316 µM): 107%
- viability, T/C (second compound 0.316 µM, first compound 0.1 µM): 96.1%
- viability, T/C (second compound 0.316 µM, first compound 0.316 µM): 110%
- viability, T/C (second compound 0.316 µM, first compound 1 µM): 97.6%
- viability, T/C (second compound 0.316 µM, first compound 3.16 µM): 85.1%
- viability, T/C (second compound 0.316 µM, first compound 10 µM): 86.1%
- viability, T/C (second compound 1 µM, first compound 0.0316 µM): 90.9%
- viability, T/C (second compound 1 µM, first compound 0.1 µM): 96.7%
- viability, T/C (second compound 1 µM, first compound 0.316 µM): 104%
- viability, T/C (second compound 1 µM, first compound 1 µM): 99.5%
- viability, T/C (second compound 1 µM, first compound 3.16 µM): 87.5%
- viability, T/C (second compound 1 µM, first compound 10 µM): 82.2%

- IC50 (curve of compound): 112 nM [middle of 4 runs]
Structure (SMILES): O=C(c1ccc(F)c(F)c1Nc1ccc(I)cc1F)N1CC(O)([C@@H]2CCCCN2)C1
- viability, T/C (compound 0.01 µM): 77.5% [middle of 4 runs]
- viability, T/C (compound 0.1 µM): 51.2% [middle of 4 runs]
- viability, T/C (compound 0.316 µM): 28.2% [middle of 4 runs]
- viability, T/C (compound 1 µM): 11.1% [middle of 4 runs]

- IC50 [1]: 21.8 nM
- IC50 [2]: 20.1 nM
- IC50 [3]: 20.1 nM
- IC50 [4]: 22.1 nM
- IC50 [5]: 24.6 nM
- IC50 [6]: 17.7 nM
Structure (SMILES): CC(C)n1nc(-c2ccc3oc(N)nc3c2)c2c(N)ncnc21 + CCn1c(-c2cccnc2C(C)OC)c2c3cc(ccc31)N1CCOC(CC(NC(=O)C(C(C)C)N(C)C(=O)C3(F)CCN(C(=O)C#CC(C)(C)N(C)C)CC3)C(=O)N3CCCC(N3)C(=O)OCC(C)(C)C2)C1
- viability, T/C (second compound 0.000949 µM, first compound 0.000316 µM): 85.9%
- viability, T/C (second compound 0.000949 µM, first compound 0.001 µM): 95.4%
- viability, T/C [7]: 82.9%
- viability, T/C [8]: 66%
- viability, T/C [9]: 42.9%
- viability, T/C [10]: 28.4%
- viability, T/C (second compound 0.003 µM, first compound 0.000316 µM): 95.8%
- viability, T/C (second compound 0.003 µM, first compound 0.001 µM): 104%
- viability, T/C [11]: 87.3%
- viability, T/C [12]: 62.7%
- viability, T/C [13]: 42.9%
- viability, T/C [14]: 34%
- viability, T/C (second compound 0.00949 µM, first compound 0.000316 µM): 107%
- viability, T/C (second compound 0.00949 µM, first compound 0.001 µM): 98.8%
- viability, T/C [15]: 94.5%
- viability, T/C [16]: 63.9%
- viability, T/C [17]: 41.1%
- viability, T/C [18]: 32.9%
- viability, T/C (second compound 0.03 µM, first compound 0.000316 µM): 100%
- viability, T/C (second compound 0.03 µM, first compound 0.001 µM): 93.8%
- viability, T/C [19]: 76.9%
- viability, T/C [20]: 59.3%
- viability, T/C [21]: 47.4%
- viability, T/C [22]: 29.1%
- viability, T/C (second compound 0.0949 µM, first compound 0.000316 µM): 97.7%
- viability, T/C (second compound 0.0949 µM, first compound 0.001 µM): 95.8%
- viability, T/C [23]: 79.4%
- viability, T/C [24]: 68.1%
- viability, T/C [25]: 44%
- viability, T/C [26]: 31.8%
- viability, T/C (second compound 0.3 µM, first compound 0.000316 µM): 92.4%
- viability, T/C (second compound 0.3 µM, first compound 0.001 µM): 93.8%
- viability, T/C [27]: 81.7%
- viability, T/C [28]: 54.6%
- viability, T/C [29]: 45.4%
- viability, T/C [30]: 44.9%
